The target of assay [1] is Sodium-dependent dopamine transporter (Homo sapiens, UniProt Q01959). The assay can be described thus: Selectivity interaction (Enzyme panel (CEREP ligand profiling)) EUB0000328a SLC6A3. The note with it: at 10 µM.
For assay [2], the target named is Sodium-dependent serotonin transporter (Homo sapiens) (UniProt P31645). In words: Selectivity interaction (Enzyme panel (CEREP ligand profiling)) EUB0000328a SLC6A4. The following applies: at 10 µM.
In assay [3] the target is T1, Gamma-aminobutyric acid receptor subunit alpha-1 (Homo sapiens, UniProt P14867).
T1 sequence (P14867 whole entry): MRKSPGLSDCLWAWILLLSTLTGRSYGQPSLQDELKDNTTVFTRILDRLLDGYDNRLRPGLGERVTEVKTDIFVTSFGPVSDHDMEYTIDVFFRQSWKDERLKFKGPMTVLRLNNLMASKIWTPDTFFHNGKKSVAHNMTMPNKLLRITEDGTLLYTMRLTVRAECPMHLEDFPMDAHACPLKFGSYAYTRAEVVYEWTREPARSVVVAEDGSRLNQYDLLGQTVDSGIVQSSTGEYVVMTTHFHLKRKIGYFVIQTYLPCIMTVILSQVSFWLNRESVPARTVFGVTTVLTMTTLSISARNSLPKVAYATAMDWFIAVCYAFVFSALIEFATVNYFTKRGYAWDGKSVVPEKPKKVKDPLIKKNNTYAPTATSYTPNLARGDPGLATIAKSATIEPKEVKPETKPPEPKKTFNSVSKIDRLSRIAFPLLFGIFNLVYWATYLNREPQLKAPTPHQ
In words: Selectivity interaction (GPCR panel (PDSP screen)) EUB0000328a GABRA1.

In assay [4] the test system is Tyrosine-protein kinase ABL1 (Homo sapiens), P00519 [H396P]. The assay can be described thus: Selectivity interaction (KinomeScan (DiscoverX)) EUB0000328a ABL1. The following applies: at 1 µM.
Assay [5] deals with T2, Serine/threonine-protein kinase LATS2 (Homo sapiens) (UniProt Q9NRM7).
T2 sequence (whole entry): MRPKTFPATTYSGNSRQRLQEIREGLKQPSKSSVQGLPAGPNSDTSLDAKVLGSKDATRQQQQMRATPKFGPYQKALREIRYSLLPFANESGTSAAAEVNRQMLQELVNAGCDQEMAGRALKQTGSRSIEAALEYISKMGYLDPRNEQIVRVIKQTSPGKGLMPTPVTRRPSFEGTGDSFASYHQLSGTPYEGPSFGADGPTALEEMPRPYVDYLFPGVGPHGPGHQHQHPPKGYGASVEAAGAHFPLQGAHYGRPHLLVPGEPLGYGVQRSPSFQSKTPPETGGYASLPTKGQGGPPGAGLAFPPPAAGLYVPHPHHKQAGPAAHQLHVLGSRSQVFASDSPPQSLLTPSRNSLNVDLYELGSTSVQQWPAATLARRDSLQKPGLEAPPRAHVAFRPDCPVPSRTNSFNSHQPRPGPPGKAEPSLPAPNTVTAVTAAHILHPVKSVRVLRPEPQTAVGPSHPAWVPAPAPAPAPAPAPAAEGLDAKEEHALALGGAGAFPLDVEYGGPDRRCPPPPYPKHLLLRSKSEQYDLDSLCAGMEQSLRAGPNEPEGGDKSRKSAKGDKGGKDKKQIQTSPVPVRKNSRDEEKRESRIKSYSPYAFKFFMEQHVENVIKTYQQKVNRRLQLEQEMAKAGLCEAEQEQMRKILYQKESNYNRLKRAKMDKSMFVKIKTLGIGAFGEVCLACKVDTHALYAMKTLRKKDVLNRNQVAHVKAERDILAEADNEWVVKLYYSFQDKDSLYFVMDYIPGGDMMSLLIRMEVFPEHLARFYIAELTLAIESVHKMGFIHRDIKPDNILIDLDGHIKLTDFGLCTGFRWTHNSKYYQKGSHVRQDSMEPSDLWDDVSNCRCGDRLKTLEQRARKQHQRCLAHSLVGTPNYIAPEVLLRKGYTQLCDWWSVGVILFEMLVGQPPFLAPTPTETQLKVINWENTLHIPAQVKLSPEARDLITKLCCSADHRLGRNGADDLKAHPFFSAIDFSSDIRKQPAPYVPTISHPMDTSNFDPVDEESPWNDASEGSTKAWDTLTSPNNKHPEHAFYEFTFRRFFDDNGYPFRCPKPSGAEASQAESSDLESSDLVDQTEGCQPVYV
The assay can be described thus: Selectivity interaction (KinomeScan (DiscoverX)) EUB0000328a LATS2. The note with it: at 1 µM.

Assay [6] deals with Protein kinase C epsilon type (Homo sapiens) (UniProt Q02156). In words: Selectivity interaction (KinomeScan (DiscoverX)) EUB0000328a PRKCE. The note with it: at 1 µM.
Chain of Protein kinase C epsilon type (Homo sapiens) (Q02156 whole entry): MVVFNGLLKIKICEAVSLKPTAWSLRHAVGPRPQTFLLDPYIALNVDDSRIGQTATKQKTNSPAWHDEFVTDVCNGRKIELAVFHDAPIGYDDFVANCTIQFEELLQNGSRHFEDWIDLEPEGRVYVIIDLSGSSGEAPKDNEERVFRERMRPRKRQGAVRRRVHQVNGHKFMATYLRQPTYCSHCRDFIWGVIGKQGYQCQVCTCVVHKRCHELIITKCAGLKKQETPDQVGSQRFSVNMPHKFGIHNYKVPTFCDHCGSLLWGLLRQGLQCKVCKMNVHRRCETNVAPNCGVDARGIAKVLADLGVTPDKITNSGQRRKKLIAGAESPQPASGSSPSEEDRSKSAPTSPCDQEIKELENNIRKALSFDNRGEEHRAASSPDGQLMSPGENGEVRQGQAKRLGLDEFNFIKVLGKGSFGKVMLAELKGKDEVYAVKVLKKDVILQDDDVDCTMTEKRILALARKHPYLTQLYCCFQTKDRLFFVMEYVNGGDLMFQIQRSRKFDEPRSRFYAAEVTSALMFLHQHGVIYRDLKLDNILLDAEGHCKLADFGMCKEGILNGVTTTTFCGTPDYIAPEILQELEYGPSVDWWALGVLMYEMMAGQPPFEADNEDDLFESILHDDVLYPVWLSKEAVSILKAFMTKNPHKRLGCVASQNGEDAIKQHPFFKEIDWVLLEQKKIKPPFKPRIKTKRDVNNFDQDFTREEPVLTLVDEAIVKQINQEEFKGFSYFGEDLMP
Assay [7] addresses Protein arginine N-methyltransferase 5 (Homo sapiens, UniProt O14744). In words: Selectivity interaction (Methyltransferase panel (Scintillation proximity assay (SPA))) EUB0000212b PRMT5. For orientation: In a scintillation proximity assay essentially only radioactivity close to the scintillant gives light.
For assay [8], the target named is T3, Histone-lysine N-methyltransferase SETD7 (Homo sapiens, UniProt Q8WTS6).
T3 sequence (Q8WTS6 whole entry): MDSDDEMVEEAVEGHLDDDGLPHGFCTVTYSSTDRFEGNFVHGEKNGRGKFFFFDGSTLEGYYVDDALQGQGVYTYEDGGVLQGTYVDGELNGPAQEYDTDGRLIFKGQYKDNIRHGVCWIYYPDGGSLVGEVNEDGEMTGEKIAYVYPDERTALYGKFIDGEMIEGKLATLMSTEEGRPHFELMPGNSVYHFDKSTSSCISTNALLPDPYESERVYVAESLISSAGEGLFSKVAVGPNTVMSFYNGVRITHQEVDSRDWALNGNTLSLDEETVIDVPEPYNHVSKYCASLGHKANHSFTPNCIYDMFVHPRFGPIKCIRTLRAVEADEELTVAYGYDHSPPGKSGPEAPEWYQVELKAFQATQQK
In words: Selectivity interaction (Methyltransferase panel (Scintillation proximity assay (SPA))) EUB0000212b SETD7.

Assay [9] deals with DNA (cytosine-5)-methyltransferase 1 (Homo sapiens, UniProt P26358). In words: Selectivity interaction (Methyltransferase panel (Scintillation proximity assay (SPA))) EUB0000212b DNMT1.
Assay [10] has as its target Histone-lysine N-methyltransferase 2A (Homo sapiens, UniProt Q03164). The assay can be described thus: Selectivity interaction (Methyltransferase panel (Scintillation proximity assay (SPA))) EUB0000212b MLL.
Assay [11] has as its target Histone-lysine N-methyltransferase, H3 lysine-79 specific (Homo sapiens, UniProt Q8TEK3). In words: Selectivity interaction (Methyltransferase panel (Scintillation proximity assay (SPA))) EUB0000212b DOT1L.
Assay [12] deals with T4, Histone-lysine N-methyltransferase EZH1 (Homo sapiens, UniProt Q92800).
T4 sequence (Q92800 whole entry): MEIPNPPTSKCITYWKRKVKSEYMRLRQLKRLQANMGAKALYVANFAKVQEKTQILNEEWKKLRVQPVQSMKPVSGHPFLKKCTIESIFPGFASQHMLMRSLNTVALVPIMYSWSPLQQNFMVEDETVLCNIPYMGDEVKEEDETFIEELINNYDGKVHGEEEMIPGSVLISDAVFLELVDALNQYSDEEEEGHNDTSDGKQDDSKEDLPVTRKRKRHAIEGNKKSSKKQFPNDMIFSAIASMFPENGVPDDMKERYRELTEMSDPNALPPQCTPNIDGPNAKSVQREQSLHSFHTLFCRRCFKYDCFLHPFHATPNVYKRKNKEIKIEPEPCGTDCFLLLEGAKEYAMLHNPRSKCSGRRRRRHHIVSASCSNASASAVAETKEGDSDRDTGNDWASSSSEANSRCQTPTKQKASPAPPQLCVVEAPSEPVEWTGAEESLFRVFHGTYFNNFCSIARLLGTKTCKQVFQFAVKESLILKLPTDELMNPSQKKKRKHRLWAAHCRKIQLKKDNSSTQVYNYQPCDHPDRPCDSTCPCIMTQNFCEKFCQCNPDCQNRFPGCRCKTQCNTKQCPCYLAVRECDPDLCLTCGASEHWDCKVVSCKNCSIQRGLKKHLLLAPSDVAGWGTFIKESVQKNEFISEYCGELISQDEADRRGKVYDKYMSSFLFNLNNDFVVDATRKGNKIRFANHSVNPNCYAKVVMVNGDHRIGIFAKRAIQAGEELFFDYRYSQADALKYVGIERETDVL
In words: Selectivity interaction (Methyltransferase panel (Scintillation proximity assay (SPA))) EUB0000212b EZH1.

In assay [13] the target is Histone-lysine N-methyltransferase EZH2 (Homo sapiens, UniProt Q15910). In words: Selectivity interaction (Methyltransferase panel (Scintillation proximity assay (SPA))) EUB0000212b EZH2.
Assay [14] addresses Histone-lysine N-methyltransferase NSD2 (Homo sapiens, UniProt O96028). In words: Selectivity interaction (Methyltransferase panel (Scintillation proximity assay (SPA))) EUB0000212b NSD2.
The target in assay [15] is Histone-lysine N-methyltransferase NSD3 (Homo sapiens, UniProt Q9BZ95). In words: Selectivity interaction (Methyltransferase panel (Scintillation proximity assay (SPA))) EUB0000212b NSD3.
Chain of Histone-lysine N-methyltransferase NSD3 (Q9BZ95 whole entry): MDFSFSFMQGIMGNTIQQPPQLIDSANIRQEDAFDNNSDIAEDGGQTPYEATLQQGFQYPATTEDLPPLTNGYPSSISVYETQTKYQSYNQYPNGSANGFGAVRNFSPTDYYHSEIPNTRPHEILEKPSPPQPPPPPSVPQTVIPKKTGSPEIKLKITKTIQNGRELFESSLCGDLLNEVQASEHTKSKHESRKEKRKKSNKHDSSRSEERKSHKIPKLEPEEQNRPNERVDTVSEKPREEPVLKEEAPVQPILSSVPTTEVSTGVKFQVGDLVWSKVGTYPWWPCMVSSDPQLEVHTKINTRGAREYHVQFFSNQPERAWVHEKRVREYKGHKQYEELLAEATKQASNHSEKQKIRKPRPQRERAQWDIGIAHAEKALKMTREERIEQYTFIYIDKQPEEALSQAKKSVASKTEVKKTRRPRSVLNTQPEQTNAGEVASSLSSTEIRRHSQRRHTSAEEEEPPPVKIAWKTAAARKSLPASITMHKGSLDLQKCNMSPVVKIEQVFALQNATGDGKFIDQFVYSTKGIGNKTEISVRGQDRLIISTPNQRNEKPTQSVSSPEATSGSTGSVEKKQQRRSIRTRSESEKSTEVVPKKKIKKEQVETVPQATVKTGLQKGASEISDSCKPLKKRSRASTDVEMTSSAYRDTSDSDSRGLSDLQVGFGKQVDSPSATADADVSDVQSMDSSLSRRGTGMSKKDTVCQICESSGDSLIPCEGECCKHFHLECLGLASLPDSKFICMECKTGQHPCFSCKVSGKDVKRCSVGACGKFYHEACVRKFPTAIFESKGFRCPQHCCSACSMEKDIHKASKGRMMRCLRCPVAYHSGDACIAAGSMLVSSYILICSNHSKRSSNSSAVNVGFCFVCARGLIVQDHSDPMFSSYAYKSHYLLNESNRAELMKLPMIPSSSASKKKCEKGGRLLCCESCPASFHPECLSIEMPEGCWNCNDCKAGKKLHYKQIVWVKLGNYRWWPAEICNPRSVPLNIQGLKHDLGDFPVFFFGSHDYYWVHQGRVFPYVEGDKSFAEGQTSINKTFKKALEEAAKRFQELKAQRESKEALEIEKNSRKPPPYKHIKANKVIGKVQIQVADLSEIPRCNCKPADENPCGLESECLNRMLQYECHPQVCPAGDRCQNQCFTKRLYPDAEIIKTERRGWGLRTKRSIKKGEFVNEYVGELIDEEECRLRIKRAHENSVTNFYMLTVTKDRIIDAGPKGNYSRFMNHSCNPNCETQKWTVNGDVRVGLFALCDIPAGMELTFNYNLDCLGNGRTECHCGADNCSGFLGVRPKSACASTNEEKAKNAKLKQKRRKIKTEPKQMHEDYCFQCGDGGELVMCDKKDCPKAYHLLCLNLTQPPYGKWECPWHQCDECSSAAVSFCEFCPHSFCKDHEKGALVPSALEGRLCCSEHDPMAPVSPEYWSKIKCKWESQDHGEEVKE
The target of assay [16] is Protein arginine N-methyltransferase 1 (Homo sapiens, UniProt Q99873). The assay can be described thus: Selectivity interaction (Methyltransferase panel (Scintillation proximity assay (SPA))) EUB0000212b PRMT1.
For assay [17], the target named is Protein arginine N-methyltransferase 3 (Homo sapiens, UniProt O60678). In words: Selectivity interaction (Methyltransferase panel (Scintillation proximity assay (SPA))) EUB0000212b PRMT3.
Chain of Protein arginine N-methyltransferase 3 (O60678 whole entry): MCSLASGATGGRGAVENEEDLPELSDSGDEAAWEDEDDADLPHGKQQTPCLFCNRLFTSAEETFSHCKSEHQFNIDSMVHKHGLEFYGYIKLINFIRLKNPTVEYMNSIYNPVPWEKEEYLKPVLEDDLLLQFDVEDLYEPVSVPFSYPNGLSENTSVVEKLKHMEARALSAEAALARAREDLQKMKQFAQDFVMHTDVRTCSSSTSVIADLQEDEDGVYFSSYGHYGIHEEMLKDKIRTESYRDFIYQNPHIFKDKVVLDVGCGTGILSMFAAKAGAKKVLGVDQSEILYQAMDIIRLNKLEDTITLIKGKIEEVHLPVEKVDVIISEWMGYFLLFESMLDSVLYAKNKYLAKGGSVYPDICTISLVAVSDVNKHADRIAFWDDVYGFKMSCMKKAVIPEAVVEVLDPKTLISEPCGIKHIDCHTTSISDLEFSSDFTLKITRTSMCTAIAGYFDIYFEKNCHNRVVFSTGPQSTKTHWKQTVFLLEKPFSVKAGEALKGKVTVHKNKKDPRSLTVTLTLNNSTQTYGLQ
The target in assay [18] is Protein arginine N-methyltransferase 6 (Homo sapiens, UniProt Q96LA8). The assay can be described thus: Selectivity interaction (Methyltransferase panel (Scintillation proximity assay (SPA))) EUB0000212b PRMT6.
For assay [19], the target named is Protein arginine N-methyltransferase 8 (Homo sapiens, UniProt Q9NR22). The assay can be described thus: Selectivity interaction (Methyltransferase panel (Scintillation proximity assay (SPA))) EUB0000212b PRMT8.
Chain of Protein arginine N-methyltransferase 8 (Q9NR22 whole entry): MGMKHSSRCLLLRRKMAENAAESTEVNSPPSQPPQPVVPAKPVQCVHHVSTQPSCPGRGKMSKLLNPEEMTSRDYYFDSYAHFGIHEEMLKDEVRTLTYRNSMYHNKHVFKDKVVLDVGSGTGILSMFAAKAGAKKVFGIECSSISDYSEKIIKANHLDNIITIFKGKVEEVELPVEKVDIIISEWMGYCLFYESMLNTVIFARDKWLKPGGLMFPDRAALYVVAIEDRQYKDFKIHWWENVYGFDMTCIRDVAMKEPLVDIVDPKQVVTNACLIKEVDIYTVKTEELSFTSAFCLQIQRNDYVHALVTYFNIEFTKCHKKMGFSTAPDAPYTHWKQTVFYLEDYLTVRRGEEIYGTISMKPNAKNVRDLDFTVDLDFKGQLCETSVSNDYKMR
Assay [20] has as its target T5, N-lysine methyltransferase KMT5A (Homo sapiens, UniProt Q9NQR1).
T5 sequence (Q9NQR1 whole entry): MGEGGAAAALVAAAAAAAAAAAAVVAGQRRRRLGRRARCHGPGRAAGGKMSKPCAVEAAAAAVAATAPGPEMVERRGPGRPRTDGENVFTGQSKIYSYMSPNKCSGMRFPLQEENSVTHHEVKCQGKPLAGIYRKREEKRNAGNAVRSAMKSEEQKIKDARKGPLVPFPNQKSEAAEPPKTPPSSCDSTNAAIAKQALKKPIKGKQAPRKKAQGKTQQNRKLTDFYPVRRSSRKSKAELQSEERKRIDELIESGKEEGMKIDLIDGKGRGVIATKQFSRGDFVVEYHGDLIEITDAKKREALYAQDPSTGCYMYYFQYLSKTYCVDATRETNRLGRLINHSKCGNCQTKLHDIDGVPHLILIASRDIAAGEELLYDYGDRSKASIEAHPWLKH
In words: Selectivity interaction (Methyltransferase panel (Scintillation proximity assay (SPA))) EUB0000212b SETD8.

The target of assay [21] is Histone-lysine N-methyltransferase SETDB1 (Homo sapiens, UniProt Q15047). The assay can be described thus: Selectivity interaction (Methyltransferase panel (Scintillation proximity assay (SPA))) EUB0000212b SETDB1.
For assay [22], the target named is Histone-lysine N-methyltransferase SMYD3 (Homo sapiens, UniProt Q9H7B4). In words: Selectivity interaction (Methyltransferase panel (Scintillation proximity assay (SPA))) EUB0000212b SMYD3.
Chain of Histone-lysine N-methyltransferase SMYD3 (Q9H7B4 whole entry): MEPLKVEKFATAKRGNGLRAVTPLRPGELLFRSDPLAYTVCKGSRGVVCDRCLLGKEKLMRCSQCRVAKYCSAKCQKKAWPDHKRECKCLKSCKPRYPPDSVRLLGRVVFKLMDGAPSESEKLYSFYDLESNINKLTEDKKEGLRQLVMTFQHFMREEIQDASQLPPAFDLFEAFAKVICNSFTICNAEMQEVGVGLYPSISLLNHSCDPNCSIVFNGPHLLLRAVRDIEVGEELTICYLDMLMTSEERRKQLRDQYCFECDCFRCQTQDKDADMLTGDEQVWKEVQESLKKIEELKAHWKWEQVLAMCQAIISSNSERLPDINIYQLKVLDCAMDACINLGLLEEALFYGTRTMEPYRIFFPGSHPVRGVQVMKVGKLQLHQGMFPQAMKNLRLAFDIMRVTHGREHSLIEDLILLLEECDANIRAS
In assay [23] the target is Histone-lysine N-methyltransferase SUV39H2 (Homo sapiens, UniProt Q9H5I1). The assay can be described thus: Selectivity interaction (Methyltransferase panel (Scintillation proximity assay (SPA))) EUB0000212b SUV39H2.
Assay [24] concerns the target Histone-lysine N-methyltransferase KMT5B (Homo sapiens, UniProt Q4FZB7). In words: Selectivity interaction (Methyltransferase panel (Scintillation proximity assay (SPA))) EUB0000212b SUV420H1.
The target of assay [25] is Histone-lysine N-methyltransferase KMT5C (Homo sapiens, UniProt Q86Y97). The assay can be described thus: Selectivity interaction (Methyltransferase panel (Scintillation proximity assay (SPA))) EUB0000212b SUV420H2.

As a reminder, the Ki is a measure of affinity in units of concentration, obtained from inhibition or displacement. By EC50 is commonly meant the midpoint of the concentration-response curve. A lower EC50 goes with higher potency in that assay.

Chain of Sodium-dependent serotonin transporter (Homo sapiens) (P31645 whole entry, looked up): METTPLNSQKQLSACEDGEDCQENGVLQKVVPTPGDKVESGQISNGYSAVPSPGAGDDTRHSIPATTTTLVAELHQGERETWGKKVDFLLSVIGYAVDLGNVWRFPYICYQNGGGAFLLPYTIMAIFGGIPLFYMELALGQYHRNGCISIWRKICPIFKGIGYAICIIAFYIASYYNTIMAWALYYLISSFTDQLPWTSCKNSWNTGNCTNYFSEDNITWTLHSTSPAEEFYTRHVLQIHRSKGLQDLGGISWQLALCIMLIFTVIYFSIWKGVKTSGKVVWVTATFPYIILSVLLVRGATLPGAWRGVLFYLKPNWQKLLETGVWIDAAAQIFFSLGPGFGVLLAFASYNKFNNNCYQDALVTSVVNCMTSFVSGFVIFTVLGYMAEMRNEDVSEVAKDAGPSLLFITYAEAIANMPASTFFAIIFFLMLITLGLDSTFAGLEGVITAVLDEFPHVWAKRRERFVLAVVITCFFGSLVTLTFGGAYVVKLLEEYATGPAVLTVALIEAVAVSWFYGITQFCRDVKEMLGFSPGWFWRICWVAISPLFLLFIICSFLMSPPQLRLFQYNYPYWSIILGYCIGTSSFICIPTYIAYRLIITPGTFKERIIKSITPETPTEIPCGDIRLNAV
Chain of Protein arginine N-methyltransferase 5 (O14744 whole entry): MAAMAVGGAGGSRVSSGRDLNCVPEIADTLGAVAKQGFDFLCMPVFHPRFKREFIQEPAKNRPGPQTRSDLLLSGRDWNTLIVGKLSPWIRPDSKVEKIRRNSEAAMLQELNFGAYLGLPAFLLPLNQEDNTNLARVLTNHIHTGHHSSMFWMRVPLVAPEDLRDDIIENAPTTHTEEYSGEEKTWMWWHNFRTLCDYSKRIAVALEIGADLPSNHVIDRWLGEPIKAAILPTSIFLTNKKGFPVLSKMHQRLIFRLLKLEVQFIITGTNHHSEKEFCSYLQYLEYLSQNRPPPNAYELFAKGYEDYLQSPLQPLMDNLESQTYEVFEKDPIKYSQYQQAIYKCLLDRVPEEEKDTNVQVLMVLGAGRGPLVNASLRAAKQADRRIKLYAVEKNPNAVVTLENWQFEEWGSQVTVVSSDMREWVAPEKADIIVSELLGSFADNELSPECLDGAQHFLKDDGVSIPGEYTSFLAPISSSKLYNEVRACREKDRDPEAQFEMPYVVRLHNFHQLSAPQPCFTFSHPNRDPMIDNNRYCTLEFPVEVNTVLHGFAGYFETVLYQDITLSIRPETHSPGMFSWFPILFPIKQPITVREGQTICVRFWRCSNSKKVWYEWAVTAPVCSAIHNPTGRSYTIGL

As for `CNC(=O)Nc1ccc2c(c1)CC[C@@]21OC(=O)N(CC(=O)N(Cc2ccc(F)cc2)[C@@H](C)C(F)(F)F)C1=O` [A-485], the % of inhibition in assay [1] was determined as 94%; in assay [2], 99%. In assay [3], this compound returned a Ki of 1.11 µM. Moreover, the % of control in assay [4] amounted to 49%; in [5] it was 47%; in assay [6], 22%.
Take `COc1cc2c(cc1OCCCN1CCCC1)N=C(N)C21CCC1`: the EC50 in assay [7], in assay [8], in assay [9], in [10], in [11] and in assay [12] was greater than 50 µM in each case. Moreover, the EC50 in assay [13], in assay [14], in assay [15], in assay [16], in assay [17] and in assay [18] was greater than 50 µM throughout. Also, the concentration for a half-maximal effect (EC50) in assay [19], in assay [20], in assay [21], in assay [22], in [23] and in assay [24] was greater than 50 µM each time. The 50% effective concentration (EC50) in assay [25] is greater than 50 µM.

For the origin of these results see ChEMBL document CHEMBL5212743, “Selectivity Literature for EUbOPEN Chemogenomics Library wave 3” (2023).
